Laboratory results as given in patent US12559725B2, “Formulation comprising extracellular vesicles, method for producing the same, and uses thereof” (MacKay Memorial Hospital, priority 2018, dated 2026).

Columns and labels:
[1] = system: mouse model of anti-aging; assay: D-galactose aging mouse model, Morris water maze; type: in vivo, BALB/c mice; details: D-galactose 6 weeks, then intraperitoneal three times a week for 3 weeks
Method: In a mouse model of anti-aging, BALB/c mice were subcutaneously treated with 100 mg/kg D-galactose every day for 6 consecutive weeks. Then, the mice were intraperitoneally administered with 0.1 ml PBS (serving as the negative control group), 0.1 ml curcumin (1 μM), 0.1 ml ucMSC-naive-EVs, 0.1 ml EV-curcumin (about 120 ug protein of EVs, 2.2×10^11 vesicles), or 5 mg/kg β-lapachone three times a week for 3 weeks after 6 weeks of aging induction and the pre-test of cognition assessment. The anti-aging effect of ucMSC-naive-EVs and EV-curcumin was then assessed by the cognition ability in Morris water maze model.

U937 myeloid cells = assay: Reactive oxygen species in PMA-stimulated U937 myeloid cells (DCFH flow cytometry); type: cell-based; details: EVs 0.15 mg/ml, curcumin 0.8 mM, 30 minutes, vs medium only
Method: The U937 myeloid cells were seeded in 24-well plate at a density of 8×10^4 cells/well (in 0.4 ml) followed by the stimulation of 100 nM PMA (phorbol myristate acetate) at 37° C., 5% CO2 incubator for 48 hours. The cells were washed with PBS twice before adding medium with and without ucMSC-naive-EVs (0.15 mg/ml), curcumin (Cur, 0.8 mM) or EV-curcumin (Cur/EVs, 0.8 mM) for 30 minutes. The reactions were incubated with DCFH ([…]) at 1 uM for 20 minutes before flow cytometric analysis of H2O2-mediated fluorescence at 480 nm emission.

[2] = system: cisplatin-induced hearing loss; assay: Cisplatin-induced hearing loss mouse model (ABR, organ of Corti explants); type: in vivo, C57BL/6 mice; details: intraperitoneal 0.1 ml day 1 to day 5; ABR threshold at 12 kHz, 10 days post-treatment
Method: In a mouse model of hearing loss, the inner cell damage was induced by administering to C57BL/6 mice 4 mg/kg cisplatin daily for 5 consecutive days, in which the mice were intraperitoneally treated with 0.1 ml PBS (serving as the negative control group), 0.1 ml ucMSC-naive-EVs or 0.1 ml EV-curcumin (about 120 ug protein of EVs, 2.2×10^11 to 2.8×10^11 vesicles) from day 1 to day 5. The protecting effect of ucMSC-naive-EVs and EV-curcumin was assessed by analyzing the cell number and function of the inner ear cells. To assess the protecting effect of the present EV formulation on hearing loss and inner ear cell death, auditory brain response (ABR) threshold at 12 kHz and immunofluorescence images of organ of Corti explants were measured 10 days post-treatment. To obtain the ucMSC-EVs preparations with and without curcumin incorporation enough for the animal study requiring a larger amount of EVs for daily intraperitoneal injection, the ucMSC-EVs in paired formulations with and without curcumin incorporation were prepared and stored at −80° C. for at least 3 months. To make sure homogeneous application of ucMSC-EV to each mouse, different batches of EVs were thawed and mixed for the experiment right before the animal study. One-way ANOVA with Duncan post hoc test was performed when compared with the control or cisplatin group.

| Structure (SMILES) | time to reach the safety island (escape latency), Morris water maze [1] | production of reactive oxygen species (H2O2-mediated fluorescence) (U937 myeloid cells) | cisplatin-induced hearing loss (ABR) [2] |
| --- | --- | --- | --- |
| CC1(C)CCC2=C(O1)c1ccccc1C(=O)C2=O [β-lapachone] | obviously reduced the time to reach the safety island | – | – |
| COc1cc(/C=C/C(=O)CC(=O)/C=C/c2ccc(O)c(OC)c2)ccc1O [curcumin] | obviously reduced the time to reach the safety island | significantly decreased the production of reactive oxygen species | not curcumin alone |
